Among the data in US11180504B2 (ORCHID PHARMA LTD., priority 2016, dated 2021) are MIC values, retold here.

In assay [1] the test system is carbapenem sensitive Pseudomonas aeruginosa. As to the kind of experiment: MIC by broth micro-dilution (CLSI), carbapenem sensitive P. aeruginosa. Format: cell-based. The note with it: Pseudomonas aeruginosa, ATCC27853, Meropenem susceptible P. aeruginosa ATCC27853; read-out: MIC. (In general: Broth dilution looks for growth in wells or tubes with falling amounts of substance.)

The subject of assay [2] is carbapenem sensitive Escherichia coli. As to the kind of experiment: MIC by broth micro-dilution (CLSI), carbapenem sensitive E. coli. The note with it: Escherichia coli, ATCC25922, ESBL −ve E. coli ATCC25922; read-out: MIC. It counts as cell-based.
Assay [3] has as its system carbapenemase producing K. pneumoniae. The assay can be described thus: MIC by broth micro-dilution (CLSI), carbapenemase producing K. pneumoniae. Format: cell-based, Klebsiella pneumoniae.
The test system of assay [4] is methicillin-sensitive Staphylococcus aureus. As to the kind of experiment: MIC by broth micro-dilution (CLSI), methicillin-sensitive S. aureus. Format: cell-based. The note with it: Staphylococcus aureus, ATCC 29213 / MSSA, MSSA S. aureus ATCC29213; read-out: MIC.
The mark [5] stands for this setting: Klebsiella pneumoniae, ATCCBAA1705, KPC-2 K. pneumoniae ATCC BAA-1705, read-out: MIC.

In brackets after ≈: the same amount, converted by molar mass. Like-named read-outs stand apart in the source and are kept apart here. Some results are limits rather than exact numbers.

Take `C[C@@H](NC(=O)Cc1nnnn1C)[C@H]1C(=O)N2C(C(=O)O)=C(S[C@@H]3CN[C@H](C(=O)N(C)C)C3)[C@H](C)[C@H]12` [Example 304, (4R,5S,6R)-3-((3S,5S)-5-(dimethylcarbamoyl)pyrrolidin-3-ylthio)-4-methyl-6-((R) - 1-(2-(1-methyl-1H-tetrazol-5-yl)acetamido)ethyl)-7-oxo-1-azabicyclo[3.2.0]hept-2-ene-2-carboxylic acid]: the minimum inhibitory concentration (MIC) was more than 128 µg/mL in assay [1], 1 µg/mL (≈ 1.97 µM) in assay [2], 4 µg/mL (≈ 7.9 µM) in assay [3] (setting [5]) and 8 µg/mL (≈ 15.8 µM) in assay [4].

Turning to `C[C@@H](NC(=O)Cn1cnnn1)[C@H]1C(=O)N2C(C(=O)O)=C(S[C@@H]3CN[C@H](C(=O)N4C[C@H](N)C[C@H]4CN)C3)[C@H](C)[C@H]12` [Example 444], the MIC in assay [1] stood at 2 µg/mL (≈ 3.55 µM); in assay [2] it was 0.5 µg/mL (≈ 0.889 µM); in assay [3] (setting [5]) it was 2 µg/mL (≈ 3.55 µM); in assay [4], 2 µg/mL (≈ 3.55 µM).

Take `C[C@@H](NC(=O)Cn1nnnc1C1CC1)[C@H]1C(=O)N2C(C(=O)O)=C(S[C@@H]3CN[C@H](C(=O)N(C)C)C3)[C@H](C)[C@H]12` [Example 378]: the minimal inhibitory concentration (MIC) came out at 128 µg/mL (≈ 240 µM) in assay [1], 0.25 µg/mL (≈ 0.469 µM) in assay [2], 2 µg/mL (≈ 3.75 µM) in assay [3] (setting [5]) and 4 µg/mL (≈ 7.51 µM) in assay [4].

As for `C[C@@H](NC(=O)Cn1cnnn1)[C@H]1C(=O)N2C(C(=O)O)=C(S[C@@H]3CN[C@H](C(=O)N4CCC(CNCC(N)=O)CC4)C3)[C@H](C)[C@H]12` [Example 437, (4R,5S,6R)-6-((R)-1-(2-(1H-tetrazol-1-yl)acetamido)ethyl)-3-((3S,5S)-5-(4-((2-amino-2-oxoethylamino)methyl)piperidine-1-carbonyl)pyrrolidin-3-ylthio)-4-methyl-7-oxo-1-azabicyclo[3.2.0]hept-2-ene-2-carboxylic acid], the minimal inhibitory concentration (MIC) is 2 µg/mL (≈ 3.23 µM) in assay [1], 0.25 µg/mL (≈ 0.404 µM) in assay [2], 1 µg/mL (≈ 1.62 µM) in assay [3] (setting [5]) and 2 µg/mL (≈ 3.23 µM) in assay [4].

With `C[C@@H](NC(=O)Cn1cnnn1)[C@H]1C(=O)N2C(C(=O)O)=C(S[C@@H]3CN[C@H](C(=O)N4CCCC45CCCNC5)C3)[C@H](C)[C@H]12` (stereo partly drawn) [Example 503, (4R,5S,6R)-3-((3S,5S)-5-(1,7-diazaspiro[4.5]decane-1-carbonyl)pyrrolidin-3-ylthio)-6-((R)-1-(2-(1H-tetrazol-1-yl)acetamido)ethyl)-4-methyl-7-oxo-1-azabicyclo[3.2.0]hept-2-ene-2-carboxylic acid], the MIC in assay [1] worked out at 16 µg/mL (≈ 27.2 µM); in assay [2], 0.5 µg/mL (≈ 0.851 µM); in assay [3] (KPC-2 K. pneumoniae ATCC BAA-1705) it was 1 µg/mL (≈ 1.7 µM); in assay [4] it was 2 µg/mL (≈ 3.4 µM).

Regarding `C[C@@H](NC(=O)Cn1cnnn1)[C@H]1C(=O)N2C(C(=O)O)=C(S[C@@H]3CN[C@H](C(=O)N4CC[C@@H](N)[C@H]4CO)C3)[C@H](C)[C@H]12` [Example 522, (4R,5S,6R)-6-((R)-1-(2-(1H-tetrazol-1-yl)acetamido)ethyl)-3-((3S,5S)-5-((2S,3R)-3-amino-2-(hydroxymethyl)pyrrolidine-1-carbonyl)pyrrolidin-3-ylthio)-4-methyl-7-oxo-1-azabicyclo[3.2.0]hept-2-ene-2-carboxylic acid], the MIC in assay [1] was 1 µg/mL (≈ 1.77 µM); in assay [2], 0.25 µg/mL (≈ 0.444 µM); in assay [3] (setting [5]), 2 µg/mL (≈ 3.55 µM); in assay [4], 4 µg/mL (≈ 7.1 µM).

As to `C[C@@H](NC(=O)Cn1cnnn1)[C@H]1C(=O)N2C(C(=O)O)=C(S[C@@H]3CN[C@H](C(=O)N4CC[N+](C)(CCN)CC4)C3)[C@H](C)[C@H]12.[I-]` [Example 375, 4-((2S,4S)-4-((4R,5S,6R)-6-((R)-1-(2-(1H-tetrazol-1-yl)acetamido)ethyl)-2-carboxy-4-methyl-7-oxo-1-azabicyclo[3.2.0]hept-2-en-3-ylthio)pyrrolidine-2-carbonyl)-1-(2-aminoethyl)-1-methylpiperazin-1-ium iodide], the MIC is 4 µg/mL in assay [1], 2 µg/mL in assay [2], 8 µg/mL in assay [3] (setting [5]) and 16 µg/mL in assay [4].

Consider `C[C@@H](NC(=O)Cn1cnnn1)[C@H]1C(=O)N2C(C(=O)O)=C(S[C@@H]3CN[C@H](C(=O)N4CCCNCC4)C3)[C@H](C)[C@H]12` [Example 516, (4R,5S,6R)-3-((3S,5S)-5-(1,4-diazepane-1-carbonyl)pyrrolidin-3-ylthio)-6-((R)-1-(2-(1H-tetrazol-1-yl)acetamido)ethyl)-4-methyl-7-oxo-1-azabicyclo[3.2.0]hept-2-ene-2-carboxylic acid], for which the MIC in assay [1] stood at 2 µg/mL (≈ 3.65 µM); in assay [2], 0.25 µg/mL (≈ 0.457 µM); in assay [3] (setting [5]), 2 µg/mL (≈ 3.65 µM); in assay [4], 2 µg/mL (≈ 3.65 µM).

`C[C@@H](NCC1CC1)[C@H]1C(=O)N2C(C(=O)O)=C(S[C@@H]3CN[C@H](C(=O)N(C)C)C3)[C@H](C)[C@H]12` [Example 293]: the minimal inhibitory concentration (MIC) in assay [1] was more than 128 µg/mL; in assay [2], 32 µg/mL (≈ 73.3 µM); in assay [3] (setting [5]) it was 128 µg/mL (≈ 293 µM); in assay [4] it was 128 µg/mL (≈ 293 µM).

`C[C@@H](NC(=O)Cn1cnnn1)[C@H]1C(=O)N2C(C(=O)O)=C(S[C@@H]3CN[C@H](C(=O)N4C[C@@H](N)C[C@H]4CNS(C)(=O)=O)C3)[C@H](C)[C@H]12` [Example 441, (4R,5S,6R)-6-((R)-1-(2-(1H-tetrazol-1-yl)acetamido)ethyl)-3-((3S,5S)-5-((2S,4S)-4-amino-2-(methylsulfonamido-methyl)pyrrolidine-1-carbonyl)pyrrolidin-3-ylthio)-4-methyl-7-oxo-1-azabicyclo[3.2.0]hept-2-ene-2-carboxylic acid]: the MIC in assay [1] stood at 8 µg/mL (≈ 12.5 µM); in assay [2] it was 0.25 µg/mL (≈ 0.39 µM); in assay [3] (setting [5]) it was 2 µg/mL (≈ 3.12 µM); in assay [4], 4 µg/mL (≈ 6.24 µM).

`C[C@@H](NC(=O)Cn1cnnn1)[C@H]1C(=O)N2C(C(=O)O)=C(S[C@@H]3CN[C@H](C(=O)N4C[C@@H](N)[C@@H](O)C4)C3)[C@H](C)[C@H]12` [Example 400, (4R,5S,6R)-6-((R)-1-(2-(1H-tetrazol-1-yl)acetamido)ethyl)-3-((3S,5S)-5-((3R,4S)-3-amino-4-hydroxypyrrolidine-1-carbonyl)pyrrolidin-3-ylthio)-4-methyl-7-oxo-1-azabicyclo[3.2.0]hept-2-ene-2-carboxylic acid]: the minimum inhibitory concentration (MIC) in assay [1] stood at 1 µg/mL (≈ 1.82 µM); in assay [2] it was 0.125 µg/mL (≈ 0.227 µM); in assay [3] (setting [5]), 1 µg/mL (≈ 1.82 µM); in assay [4], 4 µg/mL (≈ 7.28 µM).

As for `C[C@@H](NC(=O)Cc1nnn(C)n1)[C@H]1C(=O)N2C(C(=O)O)=C(S[C@@H]3CN[C@H](C(=O)N(C)C)C3)[C@H](C)[C@H]12` [Example 301, (4R,5S,6R)-3-((3S,5S)-5-(dimethylcarbamoyl)pyrrolidin-3-ylthio)-4-methyl-6-((R) - 1-(2-(2-methyl-2H-tetrazol-5-yl)acetamido)ethyl)-7-oxo-1-azabicyclo[3.2.0]hept-2-ene-2-carboxylic acid], the minimum inhibitory concentration (MIC) is more than 128 µg/mL in assay [1], 4 µg/mL (≈ 7.9 µM) in assay [2], 64 µg/mL (≈ 126 µM) in assay [3] (setting [5]) and 16 µg/mL (≈ 31.6 µM) in assay [4].

Consider `C[C@@H](NC(=O)Cn1cnnn1)[C@H]1C(=O)N2C(C(=O)O)=C(S[C@@H]3CN[C@H](C(=O)N4CCC5(CC4)CNC5)C3)[C@H](C)[C@H]12` [Example 368, (4R,5S,6R)-6-((R)-1-(2-(1H-tetrazol-1-yl)acetamido)ethyl)-3-((3S,5S)-5-(2,7-diazaspiro[3.5]nonane-7-carbonyl)pyrrolidin-3-ylthio)-4-methyl-7-oxo-1-azabicyclo[3.2.0]hept-2-ene-2-carboxylic acid], for which the minimum inhibitory concentration (MIC) stood at 1 µg/mL (≈ 1.74 µM) in assay [1], 0.25 µg/mL (≈ 0.436 µM) in assay [2], 2 µg/mL (≈ 3.49 µM) in assay [3] (setting [5]) and 2 µg/mL (≈ 3.49 µM) in assay [4].

Take `C[C@@H](NC(=O)Cn1cnnn1)[C@H]1C(=O)N2C(C(=O)O)=C(S[C@@H]3CN[C@H](C(=O)N4CCN(C)CC4)C3)[C@H](C)[C@H]12` [Example 359, (4R,5S,6R)-6-((R)-1-(2-(1H-tetrazol-1-yl)acetamido)ethyl)-4-methyl-3-((3S,5S)-5-(4-methylpiperazine-1-carbonyl)pyrrolidin-3-ylthio)-7-oxo-1-azabicyclo[3.2.0]hept-2-ene-2-carboxylic acid]: the MIC stood at 16 µg/mL (≈ 29.2 µM) in assay [1], 0.5 µg/mL (≈ 0.913 µM) in assay [2], 2 µg/mL (≈ 3.65 µM) in assay [3] (setting [5]) and 8 µg/mL (≈ 14.6 µM) in assay [4].

With `C[C@@H](NC(=O)Cn1cnnn1)[C@H]1C(=O)N2C(C(=O)O)=C(S[C@@H]3CN[C@H](C(=O)N4CCC5(CC6CCC(C5)N6)C4)C3)[C@H](C)[C@H]12` (stereo partly drawn) [Example 397, (4R,5S,6R)-6-((R)-1-(2-(1H-tetrazol-1-yl)acetamido)ethyl)-3-((3S,5S)-5-(8-azaspiro[bicyclo[3.2.1]octane-3,3′-pyrrolidine]-1′-ylcarbonyl)pyrrolidin-3-ylthio)-4-methyl-7-oxo-1-azabicyclo[3.2.0]hept-2-ene-2-carboxylic acid], the MIC turned out to be 2 µg/mL (≈ 3.26 µM) in assay [1]; 0.25 µg/mL (≈ 0.407 µM) in assay [2]; 1 µg/mL (≈ 1.63 µM) in assay [3] (Klebsiella pneumoniae, ATCCBAA1705); 2 µg/mL (≈ 3.26 µM) in assay [4].

For the compound `C[C@@H](NC(=O)Cn1cnnn1)[C@H]1C(=O)N2C(C(=O)O)=C(Sc3cnn(C[C@@H]4CCNC4)c3)[C@H](C)[C@H]12` [Example 593, (4R,5S,6R)-6-((R)-1-(2-(1H-tetrazol-1-yl)acetamido)ethyl)-4-methyl-7-oxo-3-(1-((R)-pyrrolidin-3-ylmethyl)-1H-pyrazol-4-ylthio)-1-azabicyclo[3.2.0]hept-2-ene-2-carboxylic acid], the MIC is 128 µg/mL (≈ 255 µM) in assay [1], 1 µg/mL (≈ 1.99 µM) in assay [2], 32 µg/mL (≈ 63.8 µM) in assay [3] (setting [5]) and 16 µg/mL (≈ 31.9 µM) in assay [4].

For orientation: MIC means the lowest concentration found to suppress growth.
